Like-named read-outs stand apart in the source and are kept apart here.
Biological target: KRAS G12C (Homo sapiens (Human), UniProt P01116, C118A/G12C)
Experiment: 2 h coupled exchange assay
Type: biochemical
Description: The term “2 h coupled exchange assay” or “20 h coupled exchange assay” as used herein refers to the assay described in the Section entitled “BIOLOGICAL EVALUATION.”

[1] = Avg 2 h Coupled exchange IC50, 2 h compound pre-incubation
[2] = read-out: Avg 2 h Coupled exchange IC50, 2 h compound pre-incubation, SOS-mediated nucleotide exchange

C=CC(=O)N1CC2(CCN(c3nc4cc(-c5cc(C)nn5C)ccc4c(-c4ccccc4Cl)c3C)C2)C1 [Example 16-2, 1-(6-(4-(2-chlorophenyl)-7-(1,3-dimethyl-1H-pyrazol-5-yl)-3-methyl-2-quinolinyl)-2,6-diazaspiro[3.4]octan-2-yl)-2-propen-1-one]
IC50 [1]: 648 nM

C=CC(=O)N1CC2(CCN(c3nc4cc(-c5ccnn5C)ccc4c(-c4ccc(F)cc4)c3C)C2)C1 [Example 16-3, 1-(6-(4-(4-fluorophenyl)-3-methyl-7-(1-methyl-1H-pyrazol-5-yl)-2-quinolinyl)-2,6-diazaspiro[3.4]octan-2-yl)-2-propen-1-one]
IC50 [1]: 519 nM

C=CC(=O)N1CC2(CCN(c3nc4cc(-c5ccnn5C)ccc4c(-c4ccccc4F)c3C)C2)C1 [Example 16-4, 1-(6-(4-(2-fluorophenyl)-3-methyl-7-(1-methyl-1H-pyrazol-5-yl)-2-quinolinyl)-2,6-diazaspiro[3,4]octan-2-yl)-2-propen-1-one]
IC50 [1]: 644 nM

C=CC(=O)N1CC2(CCN(c3nc4cc(-c5ccnn5C)ccc4c(-c4c(O)cccc4Cl)c3C)C2)C1 [Example 16-5, 1-(6-(4-(2-chloro-6-hydroxyphenyl)-3-methyl-7-(1-methyl-1H-pyrazol-5-yl)-2-quinolinyl)-2,6-diazaspiro[3.4]octan-2-yl)-2-propen-1-one]
IC50 [1]: 390 nM

C=CC(=O)N1CC2(CCN(c3nc4cc(-c5ccnn5C)ccc4c(-c4ccc(F)cc4F)c3C)C2)C1 [Example 16-6, 1-(6-(4-(2,4-difluorophenyl)-3-methyl-7-(1-methyl-1H-pyrazol-5-yl)-2-quinolinyl)-2,6-diazaspiro[3.4]octan-2-yl)-2-propen-1-one]
IC50 [1]: 708 nM

C=CC(=O)N1CC2(CCN(c3nc4cc(-c5ccnn5C)ccc4c(-c4cccc(F)c4Cl)c3C)C2)C1 [Example 16-7, 1-(6-(4-(2-chloro-3-fluorophenyl)-3-methyl-7-(1-methyl-1H-pyrazol-5-yl)-2-quinolinyl)-2,6-diazaspiro[3.4]octan-2-yl)-2-propen-1-one]
IC50 [1]: 716 nM

C=CC(=O)N1CC2(CCN(c3nc4cc(-c5ccnn5C)ccc4c(-c4c(C)cccc4F)c3C)C2)C1 [Example 16-8, 1-(6-(4-(2-fluoro-6-methylphenyl)-3-methyl-7-(1-methyl-1H-pyrazol-5-yl)-2-quinolinyl)-2,6-diazaspiro[3.4]octan-2-yl)-2-propen-1-one]
IC50 [1]: 702 nM

C=CC(=O)N1CC2(CCN(c3nc4cc(-c5ccnn5C)ccc4c(-c4c(O)cccc4F)c3C)C2)C1 [Example 16-10, 1-(6-(4-(2-fluoro-6-hydroxyphenyl)-3-methyl-7-(1-methyl-1H-pyrazol-5-yl)-2-quinolinyl)-2,6-diazaspiro[3,4]octan-2-yl)-2-propen-1-one]
IC50 [1]: 260 nM

C=CC(=O)N1CC2(CCN(c3nc4cc(-c5ccnn5C)ccc4c(-c4cc(O)ccc4F)c3C)C2)C1 [Example 16-11, 1-(6-(4-(2-fluoro-5-hydroxyphenyl)-3-methyl-7-(1-methyl-1H-pyrazol-5-yl)-2-quinolinyl)-2,6-diazaspiro[3,4]octan-2-yl)-2-propen-1-one]
IC50 [1]: 347 nM

C=CC(=O)N1CC2(CCN(c3nc4cc(-c5ccnn5C)ccc4c(-c4cc(O)c(F)cc4F)c3C)C2)C1 [Example 16-12, 1-(6-(4-(2,4-difluoro-5-hydroxyphenyl)-3-methyl-7-(1-methyl-1H-pyrazol-5-yl)-2-quinolinyl)-2,6-diazaspiro[3.4]octan-2-yl)-2-propen-1-one]
IC50 [1]: 488 nM

C=CC(=O)N1CC2(CCN(c3nc4cc(-c5ccnn5C)ccc4c(-c4cc(O)cc(F)c4F)c3C)C2)C1 [Example 16-13, 1-(6-(4-(2,3-difluoro-5-hydroxyphenyl)-3-methyl-7-(1-methyl-1H-pyrazol-5-yl)-2-quinolinyl)-2,6-diazaspiro[3.4]octan-2-yl)-2-propen-1-one]
IC50 [1]: 368 nM

C=CC(=O)N1CC2(CCN(c3nc4cc(-c5ccnn5C)ccc4c(-c4cc(O)c(F)cc4Cl)c3C)C2)C1 [Example 16-14, 1-(6-(4-(2-chloro-4-fluoro-5-hydroxyphenyl)-3-methyl-7-(1-methyl-1H-pyrazol-5-yl)-2-quinolinyl)-2,6-diazaspiro[3.4]octan-2-yl)-2-propen-1-one]
IC50 [1]: 373 nM

C=CC(=O)N1CC2(CCN(c3nc4cc(-c5ccnn5C)ccc4c(-c4ccccc4Cl)c3C#N)C2C)C1 (stereo not drawn) [Example 17-1, 2-(2-acryloyl-5-methyl-2,6-diazaspiro[3.4]octan-6-yl)-4-(2-chlorophenyl)-7-(1-methyl-1H-pyrazol-5-yl)quinoline-3-carbonitrile]
IC50 [1]: 293 nM

C=CC(=O)N1CC2(CCN(c3nc4cc(-c5ccnn5C(F)F)ccc4c(-c4ccccc4Cl)c3C#N)C2)C1 [Example 17-4, 4-(2-chlorophenyl)-7-(1-(difluoromethyl)-1H-pyrazol-5-yl)-2-(2-(2-propenoyl)-2,6-diazaspiro[3.4]octan-6-yl)-3-quinolinecarbonitrile]
IC50 [1]: 521 nM

C=CC(=O)N1CC2(CCN(c3nc4cc(-c5ccn[nH]5)ccc4c(-c4ccccc4Cl)c3C#N)C2)C1 [Example 17-8, 4-(2-chlorophenyl)-2-(2-(2-propenoyl)-2,6-diazaspiro[3.4]octan-6-yl)-7-(1H-pyrazol-3-yl)-3-quinolinecarbonitrile]
IC50 [1]: 571 nM

C=CC(=O)N1CC2(CCN(c3nc4cc(-c5ocnc5C)ccc4c(-c4ccccc4Cl)c3C#N)C2)C1 [Example 17-9, 4-(2-chlorophenyl)-7-(4-methyl-1,3-oxazol-5-yl)-2-(2-(2-propenoyl)-2,6-diazaspiro[3.4]octan-6-yl)-3-quinolinecarbonitrile]
IC50 [1]: 722 nM

C=CC(=O)N1CC2(CCN(c3nc4cc(-c5ocnc5C)ccc4c(-c4ccccc4F)c3C#N)C2)C1 [Example 17-10, 4-(2-fluorophenyl)-7-(4-methyl-1,3-oxazol-5-yl)-2-(2-(2-propenoyl)-2,6-diazaspiro[3.4]octan-6-yl)-3-quinolinecarbonitrile]
IC50 [1]: 570 nM

C=CC(=O)N1CC2(CCN(c3nc4c(c(-c5ncccc5F)c3C#N)CC[C@@H](c3scnc3C)C4)C2)C1 [Example 23-59, (7R)-4-(3-fluoro-2-pyridinyl)-7-(4-methyl-1,3-thiazol-5-yl)-2-(2-(2-propenoyl)-2,6-diazaspiro[3.4]octan-6-yl)-5,6,7,8-tetrahydro-3-quinolinecarbonitrile]
IC50 [1]: 164 nM

C=CC(=O)N1CC2(CCN(c3nc4c(c(-c5cc(NS(C)(=O)=O)cc6ccccc56)c3C#N)CC(C)(C)C4)C2)C1 [Example 25-1, N-(4-(3-cyano-6,6-dimethyl-2-(2-(2-propenoyl)-2,6-diazaspiro[3.4]octan-6-yl)-6,7-dihydro-5H-cyclopenta[b]pyridin-4-yl)-2-naphthalenyl)methanesulfonamide]
IC50 [1]: 450 nM

C=CC(=O)N1CC2(CCN(c3nc4cc(-c5scnc5C)cnc4c(-c4ccccc4F)c3Cl)C2)C1 [Example 28-1, 1-(6-(3-chloro-4-(2-fluorophenyl)-7-(4-methylthiazol-5-yl)-1,5-naphthyridin-2-yl)-2,6-diazaspiro[3.4]octan-2-yl)prop-2-en-1-one]
IC50 [1]: 655 nM

C=CC(=O)N1CC2(CCN(c3nc4c(c(-c5c(C)ccc6cnn(C)c56)c3C(F)F)COC(C)(C)C4)C2)C1 [Example 29-1, 1-(6-(3-(difluoromethyl)-4-(1,6-dimethyl-1H-indazol-7-yl)-7,7-dimethyl-7,8-dihydro-5H-pyrano[4,3-b]pyridin-2-yl)-2,6-diazaspiro[3.4]octan-2-yl)-2-propen-1-one]
IC50 [1]: 648 nM

Cc1ccc2[nH]ncc2c1-c1c(C#N)c(N2CCC3(CN(C(=O)/C=C/COC(F)F)C3)C2)nc2c1CCC(C)(C)C2 [Example 30-1, 2-(2-((2E)-4-(difluoromethoxy)-2-butenoyl)-2,6-diazaspiro[3.4]octan-6-yl)-7,7-dimethyl-4-(5-methyl-1H-indazol-4-yl)-5,6,7,8-tetrahydro-3-quinolinecarbonitrile]
IC50 [1]: 487 nM

Cc1ccc2[nH]ncc2c1-c1c(Cl)c(N2CCC3(CN(C(=O)/C=C/CN(C)C)C3)C2)cc2c1OCCC2 [Example 32-1, (2E)-1-(6-(7-chloro-8-(5-methyl-1H-indazol-4-yl)-3,4-dihydro-2H-chromen-6-yl)-2,6-diazaspiro[3.4]octan-2-yl)-4-(dimethylamino)-2-buten-1-one]
IC50 [1]: 599 nM

C=CC(=O)N1CC2(CCN(c3nc4c(c(-c5[nH]c(=O)c(Br)c6ccccc56)c3C#N)CCC(C)(C)C4)C2)C1 [Example 33-1, 4-(4-bromo-3-oxo-2,3-dihydro-1-isoquinolinyl)-7,7-dimethyl-2-(2-(2-propenoyl)-2,6-diazaspiro[3.4]octan-6-yl)-5,6,7,8-tetrahydro-3-quinolinecarbonitrile]
IC50 [1]: 619 nM

C=CC(=O)N1CC2(CCN(c3nc4c(c(-c5[nH]c(=O)cc6ccccc56)c3C#N)CCC(C)(C)C4)C2)C1 [Example 33-2, 7,7-dimethyl-4-(3-oxo-2,3-dihydro-1-isoquinolinyl)-2-(2-(2-propenoyl)-2,6-diazaspiro[3.4]octan-6-yl)-5,6,7,8-tetrahydro-3-quinolinecarbonitrile]
IC50 [1]: 659 nM

(M)-1-(6-(4-(5-chloro-1-methyl-1H-indazol-7-yl)-3,7,7-trimethyl-7,8-dihydro-5H-pyrano[4,3-b]pyridin-2-yl)-2,6-diazaspiro[3.4]octan-2-yl)-2-propen-1-one [Example 2-33]
IC50 [2]: 17400 nM

(P)-1-(6-(4-(5-chloro-1-methyl-1H-indazol-7-yl)-3,7,7-trimethyl-7,8-dihydro-5H-pyrano[4,3-b]pyridin-2-yl)-2,6-diazaspiro[3.4]octan-2-yl)-2-propen-1-one [Example 2-34]
IC50 [2]: 427 nM
